Test results taken from patent US11028102B2, “Methods of using 1-O-acetylbritannilatone spiro aryl isoxazoline compounds” (priority 2017, dated 2021).

Legend:
[1] = system: BMMCs; assay: MTT assay, inhibition of the growth of BMMCs (cell toxicity); type: cell-based; details: 10 μM
Experimental: (§1) (1) Experimental Animal: a 6-week-old female Balb/C mouse without specific pathogens.
(§2) (2) Extraction Process: the mouse was sacrificed by cervical dislocation. After confirming the death of the mouse, it was immersed in alcohol for 3-5 minutes. The back skin of the mouse was cut with tweezers and scissors on a clean bench. The spleen was removed and placed in a filter. The filter was placed in a petri dish containing serum-free medium. The spleen was grounded into a cell suspension having a cell concentration of 2×10^6 cells/mL. […] of lectins was added, and cell suspension was then cultured in RPMI1640 medium for 5 days. The supernatant was collected. The femur bone of the mouse was removed, and joints of the bone was cut. The bone marrow was washed into a centrifuging tube by using serum-free medium. The bone marrow containing medium was then centrifuged, and the supernatant was discarded and the pellet was red bone marrow.
(§3) (3) Cell Culture: The cells were cultured for 4 weeks with RPMI1640, 10% Gibco FBS, 20% spleen supernatant, 1% AEPS, 1% MEM, and 1% double antibody.
(1) Preparation of MTT Solution: 5 mg/mL MTT solution was prepared by weighing an amount of MTT ((2-(4,5-dimethyl-2-thiazolyl)-3,5-diphenyl-2H-[…]) and dissolving MMT in PBS (solvent), and the solution was then filtered using a 0.22 μm microporous membrane. The solution was light yellow and stored at −20° C.
(2) Method: BMMCs were seeded in 96-well plates at a density of 2×10^5/mL at 100 μL per well, and the compounds of different concentrations were added. 100 μL culture medium and 100 μL PBS were used as blank control. After 7 hours, 20 μL MMT (5 mg/mL) was added to each well. The plates were then placed in an incubator (5% CO2, 37° C.) for 4 hours. After the reaction was complete, the supernatant was discarded, and 150 μL of DMSO was added to each well. After mixing, the absorbance (OD value) was measured at 490 nm using a microplate reader. Cell Viability=(ODcompounds−ODculture medium)/(ODPBS−ODculture medium)×100%

[2] = system: Leukotriene C4 (LTC4) production in mouse bone marrow-derived mast cells (BMMCs); assay: Inhibition of LTC4 production/release by IgE/DNP-HSA-stimulated BMMCs (ELISA); type: cell-based; details: 10 μM
Experimental: as §1, §2, §3
Principle: This experiment is based on the competitive binding of LTC4 to the LTC4-acetylcholinesterase conjugate (LTC4 tracer) to determine the amount of […]. Because the concentration of the LTC4 tracer is constant and the concentration of LTC4 is varied, the amount of LTC4 tracer bound to the LTC4 antiserum is inversely proportional to the amount of LTC4. The antibody-LTC4 complex binds to the murine monoclonal anti-rabbit IgG, while the murine monoclonal anti-rabbit IgG has previously been conjugated to the kit. After the reaction system was stabilized, the unbound reagent was washed away. Ellman's reagent (a […]) was added. […] The color depth was measured by the spectrophotometric method, and is proportional to the amount of LTC4 tracer, which is inversely proportional to the amount of LTC4.
(a) Sample Preparation: culturing mature BMMCs, adding IgE overnight, washing with PBS three times, and then spreading in 96-well plates (1×10^6 cells/well). The test compound solutions were added to plates and the plates were incubated for 1-1.5 hours, stimulating with DNP-HSA for 15 min. The solutions were then centrifuged at 3000 rpm for 3 min at 4° C., and the supernatant was collected and diluted 5-fold with RPMI 1640 to obtain sample solution.
(b) ELISA Kit Reaction: Adding reagents according to the kit instructions, reacting at 4° C. for 18 h, and washing with washing buffer. 200 μL of Ellman's reagent was added to each well, reacting for 40 min.
(c) Measurement of Absorbance: The absorbance was measured at 405 nm.

Structure (SMILES)	Cell Toxicity (%) [1]	Inhabitation Rate (%) [2]
C=C1C(=O)O[C@@H]2CC(C)=C([C@@H](C)CCCOC(C)=O)[C@H](O)[C@H]12 [ABL, 1-O-acetylbritannilatone]	1.15%	35.21%
CC(=O)OCCCC(C)C1=C(C)CC2OC(=O)C3(CC(c4ccccc4)=NO3)C2C1O (centres unmarked) [Compound 2a]	5.98%	69.36%
CC(=O)OCCCC(C)C1=C(C)CC2OC(=O)C3(CC(c4ccc(F)cc4)=NO3)C2C1O (centres unmarked) [Compound 2b]	1.47%	77.46%
CC(=O)OCCCC(C)C1=C(C)CC2OC(=O)C3(CC(c4ccc(Cl)cc4)=NO3)C2C1O (centres unmarked) [Compound 2c]	1.88%	67.43%
CC(=O)OCCCC(C)C1=C(C)CC2OC(=O)C3(CC(c4ccc(Br)cc4)=NO3)C2C1O (centres unmarked) [Compound 2d]	1.06%	50.4%
CC(=O)OCCCC(C)C1=C(C)CC2OC(=O)C3(CC(c4ccc(C#N)cc4)=NO3)C2C1O (centres unmarked) [Compound 2e]	−0.66%	85.49%
CC(=O)OCCCC(C)C1=C(C)CC2OC(=O)C3(CC(c4ccc(C)cc4)=NO3)C2C1O (centres unmarked) [Compound 2f]	−1.06%	−32.88%
COc1ccc(C2=NOC3(C2)C(=O)OC2CC(C)=C(C(C)CCCOC(C)=O)C(O)C23)cc1 (centres unmarked) [Compound 2g]	7.37%	0.91%
CC(=O)OCCCC(C)C1=C(C)CC2OC(=O)C3(CC(c4ccc([N+](=O)[O-])cc4)=NO3)C2C1O (centres unmarked) [Compound 2h]	20.64%	87.14%
CC(=O)OCCCC(C)C1=C(C)CC2OC(=O)C3(CC(c4ccncc4)=NO3)C2C1O (centres unmarked) [Compound 2i]	4.26%	84.84%
CC(=O)OCCCC(C)C1=C(C)CC2OC(=O)C3(CC(c4ccc(O)cc4)=NO3)C2C1O (centres unmarked) [Compound 2j]	−0.9%	74.36%
CC(=O)OCCCC(C)C1=C(C)CC2OC(=O)C3(CC(c4ccccc4)=NO3)C2C1OC(C)=O (centres unmarked) [Compound 3a]	5.98%	79.15%
CC(=O)OCCCC(C)C1=C(C)CC2OC(=O)C3(CC(c4ccc(F)cc4)=NO3)C2C1OC(C)=O (centres unmarked) [Compound 3b]	−1.97%	89.01%
CC(=O)OCCCC(C)C1=C(C)CC2OC(=O)C3(CC(c4ccc(Cl)cc4)=NO3)C2C1OC(C)=O (centres unmarked) [Compound 3c]	−6.22%	70.16%
CC(=O)OCCCC(C)C1=C(C)CC2OC(=O)C3(CC(c4ccc(Br)cc4)=NO3)C2C1OC(C)=O (centres unmarked) [Compound 3d]	9.58%	89.94%
CC(=O)OCCCC(C)C1=C(C)CC2OC(=O)C3(CC(c4ccc(C#N)cc4)=NO3)C2C1OC(C)=O (centres unmarked) [Compound 3e]	0.25%	93.95%

Structure (SMILES)	Cell Toxicity (%) [1]	Inhabitation Rate (%) [2]
CC(=O)OCCCC(C)C1=C(C)CC2OC(=O)C3(CC(c4ccc(C)cc4)=NO3)C2C1OC(C)=O (centres unmarked) [Compound 3f]	4.1%	−23.48%
COc1ccc(C2=NOC3(C2)C(=O)OC2CC(C)=C(C(C)CCCOC(C)=O)C(OC(C)=O)C23)cc1 (centres unmarked) [Compound 3g]	11.12%	93.19%
CC(=O)OCCCC(C)C1=C(C)CC2OC(=O)C3(CC(c4ccc([N+](=O)[O-])cc4)=NO3)C2C1OC(C)=O (centres unmarked) [Compound 3h]	6.63%	84.4%
CC(=O)OCCCC(C)C1=C(C)CC2OC(=O)C3(CC(c4ccncc4)=NO3)C2C1OC(C)=O (centres unmarked) [Compound 3i]	9.58%	88.7%
CC(=O)OCCCC(C)C1=C(C)CC2OC(=O)C3(CC(c4ccc(O)cc4)=NO3)C2C1OC(C)=O (centres unmarked) [Compound 3j]	21.95%	88.7%
CC(=O)OCCCC(C)C1=C(C)CC2OC(=O)C3(CC(c4ccccc4)=NO3)C2C1=O (centres unmarked) [Compound 4a]	0.16%	21.93%
CC(=O)OCCCC(C)C1=C(C)CC2OC(=O)C3(CC(c4ccc(F)cc4)=NO3)C2C1=O (centres unmarked) [Compound 4b]	−8.44%	32%
CC(=O)OCCCC(C)C1=C(C)CC2OC(=O)C3(CC(c4ccc(Cl)cc4)=NO3)C2C1=O (centres unmarked) [Compound 4c]	2.95%	84.4%
CC(=O)OCCCC(C)C1=C(C)CC2OC(=O)C3(CC(c4ccc(Br)cc4)=NO3)C2C1=O (centres unmarked) [Compound 4d]	−4.59%	97.77%
CC(=O)OCCCC(C)C1=C(C)CC2OC(=O)C3(CC(c4ccc(C#N)cc4)=NO3)C2C1=O (centres unmarked) [Compound 4e]	3.19%	88.22%
CC(=O)OCCCC(C)C1=C(C)CC2OC(=O)C3(CC(c4ccc(C)cc4)=NO3)C2C1=O (centres unmarked) [Compound 4f]	−0.66%	28.77%
COc1ccc(C2=NOC3(C2)C(=O)OC2CC(C)=C(C(C)CCCOC(C)=O)C(=O)C23)cc1 (centres unmarked) [Compound 4g]	5.81%	53.28%
CC(=O)OCCCC(C)C1=C(C)CC2OC(=O)C3(CC(c4ccc([N+](=O)[O-])cc4)=NO3)C2C1=O (centres unmarked) [Compound 4h]	5.65%	92.79%
CC(=O)OCCCC(C)C1=C(C)CC2OC(=O)C3(CC(c4ccncc4)=NO3)C2C1=O (centres unmarked) [Compound 4i]	9.09%	83.53%
C=C1C(=O)OC2CC(C)=C(C(C)CCCOC(C)=O)C(OC(C)=O)C12 (centres unmarked) [OABL, 1,6-O,O-diacetylbritannilatone, reference compound]	3.46%	53.24%
